Test results taken from PubChem BioAssay (NCI).
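Five compound concentrations were applied to cells in 96-well plates for 48 hours; endpoints were derived by simple linear interpolation of the resulting dose-response curve. Definition used: TGI = concentration required for complete inhibition of growth.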

Experiments:
Assay in all cases: NCI anticancer screen, dose series, 48 h
786-0 renal = system: 786-0 renal
BT-549 breast = system: BT-549 breast
MCF7 breast = system: MCF7 breast
RPMI-8226 leukemia = system: RPMI-8226 leukemia
SNB-19 CNS = system: SNB-19 CNS
PC-3 prostate = system: PC-3 prostate
HCT-116 colon = system: HCT-116 colon
SF-295 CNS = system: SF-295 CNS
SK-OV-3 ovarian = system: SK-OV-3 ovarian
TK-10 renal = system: TK-10 renal
DU-145 prostate = system: DU-145 prostate
UACC-62 melanoma = system: UACC-62 melanoma
SN12C renal = system: SN12C renal
UACC-257 melanoma = system: UACC-257 melanoma
COLO 205 colon = system: COLO 205 colon
HS 578T breast = system: HS 578T breast
NCI/ADR-RES ovarian = system: NCI/ADR-RES ovarian
RXF 393 renal = system: RXF 393 renal
IGROV1 ovarian = system: IGROV1 ovarian
U251 CNS = system: U251 CNS
KM12 colon = system: KM12 colon
LOX IMVI melanoma = system: LOX IMVI melanoma
A549 NSCLC = system: A549 NSCLC
HOP-62 NSCLC = system: HOP-62 NSCLC
T-47D breast = system: T-47D breast
OVCAR-4 ovarian = system: OVCAR-4 ovarian
OVCAR-8 ovarian = system: OVCAR-8 ovarian
HCC-2998 colon = system: HCC-2998 colon
M14 melanoma = system: M14 melanoma
NCI-H23 lung = system: NCI-H23 lung
SF-539 CNS = system: SF-539 CNS
SK-MEL-28 melanoma = system: SK-MEL-28 melanoma
MDA-MB-231 breast = system: MDA-MB-231 breast
MOLT-4 leukemia = system: MOLT-4 leukemia
CAKI-1 renal = system: CAKI-1 renal
SK-MEL-5 melanoma = system: SK-MEL-5 melanoma
CCRF-CEM leukemia = system: CCRF-CEM leukemia
MALME-3M melanoma = system: MALME-3M melanoma
OVCAR-5 ovarian = system: OVCAR-5 ovarian
ACHN renal = system: ACHN renal
MDA-MB-435 = system: MDA-MB-435
HT29 colon = system: HT29 colon
SW-620 colon = system: SW-620 colon
HOP-92 NSCLC = system: HOP-92 NSCLC
EKVX NSCLC = system: EKVX NSCLC
MDA-N = system: MDA-N
NCI-H460 lung = system: NCI-H460 lung
HL-60(TB) leukemia = system: HL-60(TB) leukemia
OVCAR-3 ovarian = system: OVCAR-3 ovarian
SK-MEL-2 melanoma = system: SK-MEL-2 melanoma
A498 renal = system: A498 renal
NCI-H522 lung = system: NCI-H522 lung
SF-268 CNS = system: SF-268 CNS
HCT-15 colon = system: HCT-15 colon
SNB-75 CNS = system: SNB-75 CNS
SR leukemia = system: SR leukemia
UO-31 renal = system: UO-31 renal
NCI-H226 lung = system: NCI-H226 lung

Measured: TGI

OC[C@@H](O)[C@H](O)[C@@H](O)/C=N/Nc1ccc(Cl)nn1
not listed: SNB-75 CNS | SR leukemia | UO-31 renal | NCI-H226 lung
> 100 µM: all other assays above

O=C1NC(N2CCCCC2)=N/C1=C\c1ccccc1
not listed: SK-MEL-5 melanoma | NCI-H460 lung | A498 renal
> 100 µM: all other assays above
